Reference: the supplement of paper PMC7840683
± gives the standard deviation of the averaged measurements.

System: HepaRG
Assay: LDH release cytotoxicity, % of total lysis control; higher = more cytotoxic
Conditions: 48 h
Procedure, shortened: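 Single-lot HepaRG cells on collagen I-coated 96-well plates were exposed for 48 h in duplicate, in serum-free induction medium with 0.5% DMSO, to eight-point half-log series (test chemicals top 100 µM). Total lysis wells received 0.1% Triton X, and LDH leakage into 50 µL spent medium was read as resorufin fluorescence (CytoTox-ONE, Tecan Safire). Percent cytotoxicity was normalized to on-plate vehicle and total lysis controls and averaged over the duplicates.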

COc1c(Cl)ccc(Cl)c1C(=O)O [Dicamba]
LDH release cytotoxicity (0.03162 µM): -2.43 ± 1.4%
LDH release cytotoxicity (0.1 µM): -1.52 ± 0.043%
LDH release cytotoxicity (0.3162278 µM): -0.804 ± 0.36%
LDH release cytotoxicity (1 µM): -2.09 ± 0.64%
LDH release cytotoxicity (3.16228 µM): -0.996 ± 0.75%
LDH release cytotoxicity (10 µM): -0.906 ± 0.014%
LDH release cytotoxicity (31.6228 µM): -0.688 ± 0.24%
LDH release cytotoxicity (100 µM): 0.691 ± 0.52%

[O-][n+]1ccccc1S [Sodium (2-pyridylthio)-N-oxide]
LDH release cytotoxicity (0.03162 µM): -1.41 ± 0.6%
LDH release cytotoxicity (0.1 µM): -0.73 ± 0.66%
LDH release cytotoxicity (0.3162278 µM): -1.67 ± 0.53%
LDH release cytotoxicity (1 µM): -0.357 ± 1.3%
LDH release cytotoxicity (3.16228 µM): -1.51 ± 0.23%
LDH release cytotoxicity (10 µM): -1.01 ± 0.22%
LDH release cytotoxicity (31.6228 µM): -0.585 ± 0.072%
LDH release cytotoxicity (100 µM): 1.58 ± 0.14%

CCC(C)C(=O)OC1CC(O)C=C2C=CC(C)C(CCC(O)CC(O)CC(=O)O)C21 (configuration not stated) [Pravastatin sodium]
LDH release cytotoxicity (0.03162 µM): -0.512 ± 0.58%
LDH release cytotoxicity (0.1 µM): -1.91 ± 0.093%
LDH release cytotoxicity (0.3162278 µM): -0.491 ± 0.075%
LDH release cytotoxicity (1 µM): -1.07 ± 0.62%
LDH release cytotoxicity (3.16228 µM): -0.742 ± 0.055%
LDH release cytotoxicity (10 µM): 0.11 ± 0.94%
LDH release cytotoxicity (31.6228 µM): 0.155 ± 0.37%
LDH release cytotoxicity (100 µM): 3.76 ± 0.56%

N#CC(CCc1ccc(Cl)cc1)(Cn1cncn1)c1ccccc1 (configuration not stated) [Fenbuconazole]
LDH release cytotoxicity (0.03162 µM): -0.994 ± 0.62%
LDH release cytotoxicity (0.1 µM): -0.764 ± 0.82%
LDH release cytotoxicity (0.3162278 µM): -0.539 ± 0.46%
LDH release cytotoxicity (1 µM): -0.261 ± 2.2%
LDH release cytotoxicity (3.16228 µM): -0.9 ± 0.043%
LDH release cytotoxicity (10 µM): -0.281 ± 0.28%
LDH release cytotoxicity (31.6228 µM): 5.08 ± 0.15%
LDH release cytotoxicity (100 µM): 31.3 ± 1.4%

Cc1ccc(-c2c(Cl)nc(C#N)n2S(=O)(=O)N(C)C)cc1 [Cyazofamid]
LDH release cytotoxicity (0.03162 µM): 1.31 ± 1.8%
LDH release cytotoxicity (0.1 µM): -1.5 ± 0.69%
LDH release cytotoxicity (0.3162278 µM): -1.4 ± 1.1%
LDH release cytotoxicity (1 µM): -0.689 ± 0.31%
LDH release cytotoxicity (3.16228 µM): -1.5 ± 0.35%
LDH release cytotoxicity (10 µM): 43.2 ± 2.3%
LDH release cytotoxicity (31.6228 µM): 52.8 ± 0.71%
LDH release cytotoxicity (100 µM): 53.7 ± 2.8%

ClC1=C(Cl)C2(Cl)C3C(Cl)C=CC3C1(Cl)C2(Cl)Cl (configuration not stated) [Heptachlor]
LDH release cytotoxicity (0.031623 µM): 0.0329 ± 0.088%
LDH release cytotoxicity (0.1 µM): -3.41 ± 1.6%
LDH release cytotoxicity (0.316228 µM): -2.78 ± 0.4%
LDH release cytotoxicity (1 µM): -2.89 ± 2.9%
LDH release cytotoxicity (3.16228 µM): -2.85 ± 1.9%
LDH release cytotoxicity (10 µM): -1.78 ± 2.6%
LDH release cytotoxicity (31.6228 µM): -1.45 ± 2.4%
LDH release cytotoxicity (100 µM): -0.326 ± 1.3%

FC(F)(F)C(F)(F)C(F)(F)C(F)(F)C(F)(F)C(F)(F)CCI [1H,1H,2H,2H-Perfluorooctyl iodide]
LDH release cytotoxicity (0.03162 µM): -2.1 ± 0.36%
LDH release cytotoxicity (0.1 µM): -1.68 ± 0.34%
LDH release cytotoxicity (0.3162278 µM): -1.96 ± 0.36%
LDH release cytotoxicity (1 µM): -2.44 ± 0.81%
LDH release cytotoxicity (3.16228 µM): -1.64 ± 0.62%
LDH release cytotoxicity (10 µM): -1.16 ± 0.9%
LDH release cytotoxicity (31.6228 µM): -0.32 ± 0.46%
LDH release cytotoxicity (100 µM): 1 ± 0.87%

O=C(O)c1cccc(Oc2ccccc2)c1 [3-Phenoxybenzoic acid]
LDH release cytotoxicity (0.0253 µM): 2.02 ± 1.1%
LDH release cytotoxicity (0.08 µM): 1.68 ± 0.14%
LDH release cytotoxicity (0.252982 µM): 1.75 ± 0.9%
LDH release cytotoxicity (0.8 µM): 0.842 ± 0.14%
LDH release cytotoxicity (2.52982 µM): 0.659 ± 0.3%
LDH release cytotoxicity (8 µM): -0.233 ± 0.036%
LDH release cytotoxicity (25.2982 µM): -0.367 ± 0.52%
LDH release cytotoxicity (80 µM): -1.57 ± 0.08%

CCOP(=S)(OCC)OC(Cl)C(Cl)(Cl)Cl (configuration not stated) [Chlorethoxyfos]
LDH release cytotoxicity (0.03162 µM): -1.98 ± 0.044%
LDH release cytotoxicity (0.1 µM): -1.72 ± 0.32%
LDH release cytotoxicity (0.3162278 µM): -0.757 ± 0.55%
LDH release cytotoxicity (1 µM): -2.38 ± 0.29%
LDH release cytotoxicity (3.16228 µM): -1.72 ± 0.38%
LDH release cytotoxicity (10 µM): -0.842 ± 0.087%
LDH release cytotoxicity (31.6228 µM): -1.18 ± 0.36%
LDH release cytotoxicity (100 µM): -1.1 ± 0.44%

CCOC(=O)COc1cc(-n2ncc(C(F)(F)F)c(C)c2=O)c(F)cc1Cl [Flufenpyr-ethyl]
LDH release cytotoxicity (0.03162 µM): -1.89 ± 1.7%
LDH release cytotoxicity (0.1 µM): -1.45 ± 0.22%
LDH release cytotoxicity (0.3162278 µM): -1.14 ± 0.024%
LDH release cytotoxicity (1 µM): -1.34 ± 0.57%
LDH release cytotoxicity (3.16228 µM): -1.22 ± 0.67%
LDH release cytotoxicity (10 µM): -0.592 ± 0.22%
LDH release cytotoxicity (31.6228 µM): -0.509 ± 1.1%
LDH release cytotoxicity (100 µM): 0.726 ± 0.9%

O=P1(N(CCCl)CCCl)NCCCO1 (configuration not stated) [Cyclophosphamide monohydrate]
LDH release cytotoxicity (0.03162 µM): -1.01 ± 0.51%
LDH release cytotoxicity (0.1 µM): -1.29 ± 0.25%
LDH release cytotoxicity (0.3162278 µM): -1.53 ± 0.08%
LDH release cytotoxicity (1 µM): -1.41 ± 0.039%
LDH release cytotoxicity (3.16228 µM): -1.5 ± 0.48%
LDH release cytotoxicity (10 µM): -0.484 ± 0.23%
LDH release cytotoxicity (31.6228 µM): -0.76 ± 0.39%
LDH release cytotoxicity (100 µM): 1.23 ± 0.55%

CC(C)(C)c1ccccc1O [2-tert-Butylphenol]
LDH release cytotoxicity (0.03162 µM): -1.05 ± 0.97%
LDH release cytotoxicity (0.1 µM): -1.24 ± 0.37%
LDH release cytotoxicity (0.3162278 µM): -1.22 ± 0.3%
LDH release cytotoxicity (1 µM): -1.31 ± 1.3%
LDH release cytotoxicity (3.16228 µM): -0.599 ± 0.044%
LDH release cytotoxicity (10 µM): -0.21 ± 0.92%
LDH release cytotoxicity (31.6228 µM): -0.521 ± 0.091%
LDH release cytotoxicity (100 µM): 0.121 ± 1%

CCCCOC(=O)c1ccccc1 [Butyl benzoate]
LDH release cytotoxicity (0.03162 µM): -1.31 ± 0.5%
LDH release cytotoxicity (0.1 µM): -1.78 ± 0.16%
LDH release cytotoxicity (0.3162278 µM): -2.41 ± 0.59%
LDH release cytotoxicity (1 µM): -1.63 ± 0.22%
LDH release cytotoxicity (3.16228 µM): -1.96 ± 0.76%
LDH release cytotoxicity (10 µM): -1.46 ± 0.092%
LDH release cytotoxicity (31.6228 µM): -1.03 ± 0.64%
LDH release cytotoxicity (100 µM): 0.0897 ± 0.95%

CC(O)CC(C)(C)O (configuration not stated) [2-Methyl-2,4-pentanediol]
LDH release cytotoxicity (0.03162 µM): -1.84 ± 0.52%
LDH release cytotoxicity (0.1 µM): -2.18 ± 0.3%
LDH release cytotoxicity (0.3162278 µM): -2.81 ± 0.68%
LDH release cytotoxicity (1 µM): -2.8 ± 1.5%
LDH release cytotoxicity (3.16228 µM): -2.62 ± 0.7%
LDH release cytotoxicity (10 µM): -2.46 ± 1%
LDH release cytotoxicity (31.6228 µM): -2.69 ± 1.3%
LDH release cytotoxicity (100 µM): -0.649 ± 1.4%

CC(C)(C)OOC(C)(C)CCC(C)(C)OOC(C)(C)C [2,5-Dimethyl-2,5-di-(tert-butylperoxy)hexane]
LDH release cytotoxicity (0.03162 µM): -1.07 ± 0.59%
LDH release cytotoxicity (0.1 µM): -0.939 ± 1%
LDH release cytotoxicity (0.3162278 µM): -0.841 ± 0.2%
LDH release cytotoxicity (1 µM): -0.347 ± 0.56%
LDH release cytotoxicity (3.16228 µM): -0.34 ± 0.39%
LDH release cytotoxicity (10 µM): -0.223 ± 0.53%
LDH release cytotoxicity (31.6228 µM): 1.22 ± 1.1%
LDH release cytotoxicity (100 µM): 2.2 ± 1.6%

Clc1ccc(C(c2ccccc2Cl)C(Cl)(Cl)Cl)cc1 (configuration not stated) [o,p'-DDT]
LDH release cytotoxicity (0.03162 µM): 0.598 ± 0.81%
LDH release cytotoxicity (0.1 µM): -1.38 ± 0.27%
LDH release cytotoxicity (0.3162278 µM): -0.542 ± 0.35%
LDH release cytotoxicity (1 µM): -0.286 ± 0.43%
LDH release cytotoxicity (3.16228 µM): 2.06 ± 0.81%
LDH release cytotoxicity (10 µM): 10.3 ± 2.1%
LDH release cytotoxicity (31.6228 µM): 12.9 ± 0.91%
LDH release cytotoxicity (100 µM): 8.46 ± 0.97%

Fc1ccc(Oc2ccnc3cc(Cl)cc(Cl)c23)cc1 [Quinoxyfen]
LDH release cytotoxicity (0.03162 µM): -0.928 ± 1.3%
LDH release cytotoxicity (0.1 µM): -1.42 ± 1.2%
LDH release cytotoxicity (0.3162278 µM): -1.39 ± 0.3%
LDH release cytotoxicity (1 µM): -0.911 ± 0.14%
LDH release cytotoxicity (3.16228 µM): -1.44 ± 0.34%
LDH release cytotoxicity (10 µM): -0.367 ± 0.57%
LDH release cytotoxicity (31.6228 µM): -0.837 ± 0.58%
LDH release cytotoxicity (100 µM): 3.32 ± 2.2%

NCC1(Cc2noc(=O)[nH]2)CCCCC1
LDH release cytotoxicity (0.03162 µM): -1.45 ± 0.35%
LDH release cytotoxicity (0.1 µM): -1.66 ± 0.47%
LDH release cytotoxicity (0.3162278 µM): -1.14 ± 0.84%
LDH release cytotoxicity (1 µM): -1.29 ± 0.97%
LDH release cytotoxicity (3.16228 µM): -1.26 ± 0.87%
LDH release cytotoxicity (10 µM): -1.72 ± 0.14%
LDH release cytotoxicity (31.6228 µM): -2.07 ± 0.18%
LDH release cytotoxicity (100 µM): 17.4 ± 1.5%

CN1CC=NC1=S [Methimazole]
LDH release cytotoxicity (0.03162 µM): -0.734%
LDH release cytotoxicity (0.1 µM): -1.69 ± 0.39%
LDH release cytotoxicity (0.3162278 µM): -2.04 ± 0.31%
LDH release cytotoxicity (1 µM): -2.56 ± 0.11%
LDH release cytotoxicity (3.16228 µM): -1.77 ± 0.33%
LDH release cytotoxicity (10 µM): -1.81 ± 0.21%
LDH release cytotoxicity (31.6228 µM): -1.83 ± 0.38%
LDH release cytotoxicity (100 µM): -0.15 ± 0.28%
